Measured values reported in patent US9192589B2, “Chalcones as enhancer of antimicrobial agents” (priority 2009, dated 2015).
≈ marks a conversion by molar mass, not a printed value. Read-outs that look alike come from different tables or passages of the source.

Key:
[1] = system: Staphylococcus aureus 1199B (NorA overexpressing); experiment: Checkerboard MIC of ciprofloxacin alone and in combination with chalcone; format: cell-based; conditions: for MIC: Staphylococcus aureus
[2] = system: Staphylococcus aureus ATCC 29213; experiment: Systemic infection model of mice, ED50 of ciprofloxacin; format: in vivo, Swiss albino mice; conditions: ATCC29213, iv, after seven days of observation
Procedure: Efficacy testing will be done using standard procedures. Primary efficacy evaluation may be done using the murine septicemia model (Yun et al. Journal of Antimicrob. Chemother., 2002, 46: 3071-3074). In this model a supra-lethal dose of bacteria is used to challenge the rodents. Treatment is initiated, varying either or both time(s) of treatment and dose of antibiotic. In these experiments both the antibiotic and the efflux pump inhibitor doses are varied.
The study was conducted to see the in vivo response of ciprofloxacin in combination with the above-mentioned efflux pump inhibitor. The Swiss albino mice were infected intravenously with Staphylococcus aureus ATCC 29213 (10^7 CFU/mouse). The infected mice were divided in groups and each group consisted of 6 mice. The treatment consisted of one dose immediately after the infection followed by the next dose after a gap of 6 hrs. The result was recorded as number of survivals each day.

[3] = system: Actinomyces viscosus; experiment: MIC of antibacterial agents alone and in combination with CK-4; format: cell-based; conditions: A. viscosus
Description: (§1) The checkerboard method is the most frequently used method to access the antimicrobial combinations in vitro. The term “checkerboard” refers to the pattern (of tubes or microtiter plate wells) formed by multiple dilutions of two drugs being tested (Eliopoulos G M, Moellering R C. Antimicrobial Combinations, in: Antibiotics in Laboratory Medicine: USA: Williams & Wilkins). In the present study the checkerboard consisted of columns in which each tube (or well) contains the same amount of the standard drug (antibacterial/antifungal/anti-TB/antiviral) being diluted along the x-axis and rows in which each tube (or well) contains the same amount of the potentiator being diluted on the y-axis. As a result each square in the checkerboard (which represents one tube/well or plate) contained a unique combination of the standard drug and potentiator. The concentration range of standard drug in the present study was 64 μg/ml to 0.03 μg/ml, whereas the potentiator was tested in the range of 500 μg/ml to 0.2 μg/ml. This checkerboard technique can be performed with liquid or semisolid (agar) media.
(§2) In the agar method the agar (Mueller Hinton agar, Middlebrook 7H10 agar) was autoclaved and allowed to cool to 55° C. to 50° C. The combination of the standard drug and the potentiator was added to the agar. Serial two fold dilutions of each of standard drug and the potentiator were prepared in appropriate solvents. In order to maintain the desired concentrations of both agar and drugs, and to rule out the effect of solvent, the volume of solvent (containing standard drug or potentiator) added to agar was kept small (i.e. ≦5% of the total volume). After the agar plates have been poured and allowed to dry, the bacteria to be tested were applied to the surface of agar with a replicating device designed to deliver a standard inoculum (approx 10^4 cfu/spot). The plates were incubated at 37° C. for 24 hrs (3 weeks in case of Mycobacterium tuberculosis).
(§3) The above-mentioned checkerboard was also performed with liquid media in a microtiter plate format. This method was used to study the combination of antibacterial/antifungal/antiviral drugs with potentiator.
(§4) Minimum Inhibitory Concentration (MIC) of triclosan alone and in combination with the above mentioned chalcone compound was performed against Streptococcus mutans, Actinomyces viscosus and Fusobacterium nucleatum, using method described in the study design.
(§5) Minimum Inhibitory Concentration (MIC) of magnolol alone and in combination with the above mentioned chalcone compound was performed against Streptococcus mutans, Actinomyces viscosus and Fusobacterium nucleatum, using method described in the study design.
(§6) Minimum Inhibitory Concentration (MIC) of honokiol alone and in combination with the above mentioned chalcone compound was performed against Streptococcus mutans, Actinomyces viscosus and Fusobacterium nucleatum, using method described in the study design.

[4] = system: Fusobacterium nucleatum; experiment: as above; format: cell-based; conditions: F. nucleatum
Description: as §1, §2, §3, §4, §5, §6

[5] = system: Streptococcus mutans; experiment: as above; format: cell-based; conditions: S. mutans
Description: as §1, §2, §3, §4, §5, §6

[6] = system: A. Viscosus biofilm; experiment: Inhibition of single species biofilm formation (BEC50, crystal violet); format: cell-based, Actinomyces viscosus; design: unit not given here; conditions: 24 hours; for BEC50 alone: agent alone
Procedure: (§7) Actinomyces viscosus (ATCC#43146) was grown in trypticase soy broth supplemented with 0.6% yeast extract (TSB-YE) at 37° C., static culture. For mixed species assays, the source of bacteria was a continuous culture chemostat inoculated with A. viscosus, Lactobacillus casei (ATCC #334), Streptococcus oxalis (ATCC #35037), Fusobacterium nucleatum (ATCC #10953), and Veilonella parvula (ATCC #17745). This mixed culture was maintained in a specialized complex medium in a continuous culture chemostat at 37° C.
To assess the bioenhancing ability of CK-4, inhibition of single species biofilm formation tests were conducted. Actives of interest were plated in the first column of a sterile 384-well culture plate and serial twofold dilutions were performed across the plate in 0.5× TSB. First generation cultures of A. Viscosus bacteria were grown overnight in TSB-YE. Cultures were diluted to an OD610˜0.2 in 0.5×TSB and plated in the wells containing serial dilutions of actives. Plates were incubated for 24 hours at 37° C. to allow growth and biofilm formation to occur.
Following incubation, supernatants were removed from the plate and remaining biofilms were stained with 0.03% Grain's crystal violet. Stained plates were read on a Perkin Elmer EnVision microplate reader for absorbance at 590 nm.

[7] = system: Streptococcus mutans, Actinomyces viscosus and Fusobacterium nucleatum; experiment: Fold reduction in MIC over the three oral bacteria; format: cell-based; conditions: in combination with CK-4; over S. mutans, A. viscosus and F. nucleatum
Description: as §1, §2, §3, §4
Minimum Inhibitory Concentration (MIC) of magnolol alone and in combination with the above mentioned chalcone compound was performed against Streptococcus mutans, Actinomyces viscosus and Fusobacterium nucleatum, using method described in the study design. […]

[8] = system: Staphylococcus aureus SA-K2192 (TetK overexpressing); experiment: Checkerboard MIC of tetracycline alone and in combination with chalcone; format: cell-based
[9] = system: A. viscosus; experiment: MIC assay using A. viscosus as reference organism (96-well, OD610); format: cell-based; conditions: Actinomyces viscosus, compound alone, 0.5x TSB, overnight 37° C.
Procedure: as §7

[10] = system: Staphylococcus aureus SA-K2191 (MsrA overexpressing); experiment: Checkerboard MIC of erythromycin alone and in combination with chalcone; format: cell-based; conditions: for MIC: Staphylococcus aureus
[11] = in combination with CK-4 at 50 μg/ml
[12] = in combination with CK-14 at 50 μg/ml
[13] = Actinomyces viscosus, agent alone, read-out: MIC
[14] = Fusobacterium nucleatum, agent alone, read-out: MIC
[15] = Streptococcus mutans, agent alone, read-out: MIC

Compound | MIC ([3]; with CK-4 6.25 μg/ml) [µg/mL] | MIC ([3]; with CK-4 12.5 μg/ml) [µg/mL] | MIC ([3]; with CK-4 25 μg/ml) [µg/mL] | MIC [3, 13] [µg/mL] | MIC ([4]; with CK-4 6.25 μg/ml) [µg/mL] | MIC ([4]; with CK-4 12.5 μg/ml) [µg/mL] | MIC ([4]; with CK-4 25 μg/ml) [µg/mL] | MIC [4, 14] [µg/mL] | MIC ([5]; with CK-4 6.25 μg/ml) [µg/mL] | MIC ([5]; with CK-4 12.5 μg/ml) [µg/mL] | MIC ([5]; with CK-4 25 μg/ml) [µg/mL] | MIC [5, 15] [µg/mL] | BEC50 alone [6] | BEC50 with CK-4 [6] | reduction in MIC in combination with chalcone compound [7] | also measured
O=C(O)c1cn(C2CC2)c2cc(N3CCNCC3)c(F)cc2c1=O [ciprofloxacin] |  |  |  |  |  |  |  |  |  |  |  |  |  |  |  | MIC ([1]; read-out: MIC (μg/ml) of ciprofloxacin for Staphylococcus aureus 1199B, ciprofloxacin alone): 8 µg/mL; MIC ([1]; read-out: MIC (μg/ml) of ciprofloxacin for Staphylococcus aureus 1199B, in combination with CK-4 6.25 μg/ml): 4 µg/mL; MIC ([1]; read-out: MIC (μg/ml) of ciprofloxacin for Staphylococcus aureus 1199B, in combination with CK-4 12.5 μg/ml): 2 µg/mL; MIC ([1]; read-out: MIC (μg/ml) of ciprofloxacin for Staphylococcus aureus 1199B, in combination with CK-4 25.0 μg/ml): 1 µg/mL; MIC ([1]; read-out: MIC (μg/ml) of ciprofloxacin for Staphylococcus aureus 1199B, in combination with CK-4 50.0 μg/ml): 0.5 µg/mL; reduction in MIC of ciprofloxacin [1, 11]: Up to sixteen-fold; reduction in MIC of ciprofloxacin [1, 12]: Up to eight-fold; ED50 ([2]; ciprofloxacin alone, mice infected i.v. with S. aureus ATCC 29213, two doses 6 hrs apart): 9.2 mg/kg; ED50 ([2]; in combination with the CK-4, mice infected i.v. with S. aureus ATCC 29213, two doses 6 hrs apart): 5.86 mg/kg
C=CCc1ccc(O)c(-c2ccc(O)c(CC=C)c2)c1 [Honokiol, honokiol] | 2.0 | 1.0 | 0.5 | 4 | 1.0 | 1.0 | 0.5 | 2 | 2.0 | 1.0 | 0.5 | 4 | 5.21 | 2.60 | Four to eight-fold | 
O=C([O-])CC(O)(CC(=O)[O-])C(=O)[O-].O=C([O-])CC(O)(CC(=O)[O-])C(=O)[O-].[Zn+2].[Zn+2].[Zn+2] [Zinc Citrate] |  |  |  |  |  |  |  |  |  |  |  |  | 41.67 | 20.83 |  | 
CN(C)[C@@H]1C(O)=C(C(N)=O)C(=O)[C@@]2(O)C(O)=C3C(=O)c4c(O)cccc4[C@@](C)(O)[C@H]3C[C@@H]12 [tetracycline] |  |  |  |  |  |  |  |  |  |  |  |  |  |  |  | MIC ([8]; read-out: MIC (μg/ml) of tetracycline for Staphylococcus aureus SA-K2192, in combination with CK-4 6.25 μg/ml): 32 µg/mL; MIC ([8]; read-out: MIC (μg/ml) of tetracycline for Staphylococcus aureus SA-K2192, in combination with CK-4 12.5 μg/ml): 16 µg/mL; MIC ([8]; read-out: MIC (μg/ml) of tetracycline for Staphylococcus aureus SA-K2192, in combination with CK-4 25.0 μg/ml): 8 µg/mL; MIC ([8]; read-out: MIC (μg/ml) of tetracycline for Staphylococcus aureus SA-K2192, in combination with CK-4 50.0 μg/ml): 4 µg/mL; MIC ([8]; read-out: MIC (μg/ml) of tetracycline for Staphylococcus aureus SA-K2192, tetracycline alone): 32 µg/mL
COc1cc(/C=C/C(=O)c2ccccc2)ccc1O [CK-4, 3-(4′-Hydroxy-3′-methoxy-phenyl)-1-phenyl-prop-2-ene-1-one] |  |  |  |  |  |  |  |  |  |  |  |  |  |  |  | MIC [9]: > 100 µg/mL
Catechin |  |  |  |  |  |  |  |  |  |  |  |  | 26.04 | 26.04 |  | 
CC[C@H]1OC(=O)[C@H](C)[C@@H](O[C@H]2C[C@@](C)(OC)[C@@H](O)[C@H](C)O2)[C@H](C)[C@@H](O[C@@H]2O[C@H](C)C[C@H](N(C)C)[C@H]2O)[C@](C)(O)C[C@@H](C)C(=O)[C@H](C)[C@@H](O)[C@]1(C)O [erythromycin] |  |  |  |  |  |  |  |  |  |  |  |  |  |  |  | MIC ([10]; read-out: MIC (μg/ml) of erythromycin for Staphylococcus aureus SA-K2191, erythromycin alone): 64 µg/mL; MIC ([10]; read-out: MIC (μg/ml) of erythromycin for Staphylococcus aureus SA-K2191, in combination with CK-4 6.25 μg/ml): 64 µg/mL; MIC ([10]; read-out: MIC (μg/ml) of erythromycin for Staphylococcus aureus SA-K2191, in combination with CK-4 12.5 μg/ml): 32 µg/mL; MIC ([10]; read-out: MIC (μg/ml) of erythromycin for Staphylococcus aureus SA-K2191, in combination with CK-4 25.0 μg/ml): 16 µg/mL; MIC ([10]; read-out: MIC (μg/ml) of erythromycin for Staphylococcus aureus SA-K2191, in combination with CK-4 50.0 μg/ml): 8 µg/mL; reduction in MIC of erythromycin [10, 11]: Up to eight-fold; reduction in MIC of erythromycin [10, 12]: Up to four-fold
CCCCc1ccc(O)c(-c2cc(CCCC)ccc2O)c1 [Butyl magnolol, 5,5′-dibutylbiphenyl-2,2′-diol] | 4.0 | 2.0 | 1.0 | 4 | 2.0 | 2.0 | 1.0 | 2 | 4.0 | 2.0 | 1.0 | 4 | 0.65 | 0.24 | Two to four-fold | 
CCCc1ccc(O)c(-c2ccc(O)c(CCC)c2)c1 [Propyl Honokiol, propyl honokiol] |  |  |  |  |  |  |  |  |  |  |  |  | 0.49 | 0.65 |  | 
C=CCc1ccc(O)c(-c2cc(CC=C)ccc2O)c1 [Magnolol, magnolol] | 1.0 | 0.5 | 0.25 | 4 | 1.0 | 1.0 | 0.5 | 2 | 2.0 | 1.0 | 0.5 | 4 | 3.91 | 1.95 | Up to sixteen-fold | 
Oc1cc(Cl)ccc1Oc1ccc(Cl)cc1Cl [Triclosan, triclosan] | 2.0 | 1.0 | 0.5 | 4 | 1.0 | 1.0 | 0.5 | 2 | 2.0 | 1.0 | 0.5 | 4 | 1.95 | 0.98 | Four to eight-fold | MIC [9]: 3.5 µg/mL (≈ 12.1 µM)
